Laboratory results reported in patent US6627769B2, “RGD-analog non-peptidic molecules having anti-adhesive, anti-migration and anti-proliferative effects” (Provincia Italiana Della Congregzaione dei Figli …, priority 2001, dated 2003).
Where two headings read alike, the source gives them in different places.

Key:
[1] = tested on: RASMC proliferation stimulated with PDGF-BB
Experimental: (§1) For this test rat vascular smooth muscle cells (RASMC) primary cultures, obtained from adult male Wistar Rats, were used according to well known procedures (Facchiano et al., 2000, J. Cell Sci., 113(16), 2855-63).
(§2) Proliferation assay was performed, following standard procedures (Facchiano, et al., 2000, Cell Sci., 113(16), 2855-63), on 6-well plates (1×10^5 cells/plate) allowed to grow for 24 hours in DMEM supplemented with 10% Fetal Calf Serum (FCS) at 37° C. in 5% CO2. Medium was replaced with starvation medium containing either DMEM-0.1% BSA for 24 hours. Subsequently the starvation medium was replaced with fresh medium containing either 0.1% BSA alone or 0.1% BSA with PDGF-BB in the presence or absence of the RGD-analog. Every assay was carried out at different time intervals and cells were harvested and counted with hemacytometer.

[2] = tested on: RASMC proliferation stimulated with PDGF-BB; experiment: Proliferation assay (PDGF-BB stimulated RASMC, cell counting); conditions: FIG. 3
Experimental: as §1, §2

[3] = tested on: RASMC migration toward PDGF-BB; experiment: Migration assay in modified Boyden chambers toward PDGF-BB; assay type: cell-based, rat; conditions: FIG. 2; PDGF-BB 10 ng/ml as chemoattractant
Experimental: Rat vascular smooth muscle cells (RASMC) were placed in the upper chamber of the Boyden apparatus. […] Cell migrated on the bottom face of the filters were counted at 400× magnification. Fifteen fields were counted for each filter and the average number of cells/field was calculated. Experiments were performed at least 4 times in duplicate.

| Compound | toxic effects on cells [1] | anti-proliferative effect (inhibition of RASMC proliferation) ([2]; 100 ng/ml, stimulated for 48 hours with PDGF-BB (10 ng/ml)) | toxic effects on cells ([2]; added to cells in the absence of PDGF-BB) | inhibition of RASMC migration toward PDGF-BB gradient [3] |
| --- | --- | --- | --- | --- |
| NC(N)=NCCC[C@H](N)C(=O)NCC(=O)N[C@@H](CC(=O)O)C(=O)N[C@@H](CO)C(=O)O [RGDS] | do not show toxic effects |  |  |  |
| N=C(N)NCCC[C@H](NC(=O)[C@@H](Cc1ccccc1)NC(=O)[C@H](CCCNC(=N)N)NC(=O)CC(=O)N[C@@H](CC(=O)O)C(N)=O)C(N)=O [non-peptidic RGD-analog, H2N—RfRmD—NH2] |  | marked anti-proliferative effect | do not show toxic effects | in a dose-dependent manner |
